Experimental data published in US8748417B2, “Amino-pyrrolidine-azetidine diamides as monoacylglycerol lipase inhibitors” (Janssen Pharmaceutica, NV, priority 2010, dated 2014).
Changes are numbered by the printed parent chain.

Columns and labels:
Format in all cases: biochemical
[1] = biological target: T1, purified mutant MGL (mut-MGLL 11-313 L179S L186S) (Homo sapiens, UniProt Q99685, L169S/L176S); experiment: MGL enzyme activity assay (4MU-B cleavage), mutant MGL; settings: mutant MGL 5 nM, 4MU-B 10 μM, 37° C.; read-out: MGL mutant inh IC50
T1 construct: purified mutant MGL (mut-MGLL 11-313 L179S L186S)
T1 sequence (Q99685 1-303 L169S/L176S): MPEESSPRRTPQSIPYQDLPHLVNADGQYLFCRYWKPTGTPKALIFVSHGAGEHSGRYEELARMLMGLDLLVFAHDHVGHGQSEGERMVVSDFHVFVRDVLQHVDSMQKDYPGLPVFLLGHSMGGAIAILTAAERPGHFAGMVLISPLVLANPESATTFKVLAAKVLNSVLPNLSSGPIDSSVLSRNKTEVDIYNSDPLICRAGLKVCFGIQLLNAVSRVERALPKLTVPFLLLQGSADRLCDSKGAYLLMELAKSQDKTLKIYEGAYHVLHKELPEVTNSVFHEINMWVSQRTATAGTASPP
Experimental: All rate-based assays were performed in black 384-well polypropylene PCR microplates (Abgene) in a total volume of 30 μL. Substrate 4-methylumbelliferyl butyrate (4MU-B; Sigma) and either purified mutant MGL (mut-MGLL 11-313 L179S L186S) or purified wild type MGL (wt-MGLL 6H-11-313) were diluted separately into 20 mM PIPES buffer (pH=7.0), containing 150 mM NaCl and 0.001% Tween 20. Compounds of Formula (I) were pre-dispensed (50 nL) into the assay plate using a Cartesian Hummingbird prior to adding 4MU-B (25 μL of 1.2× solution to a final concentration of 10 μM) followed by enzyme (5 μL of a 6× solution to a final concentration of 5 nM) to initiate the reaction. Final compound concentrations ranged from 17 to 0.0003 μM. The fluorescence change due to 4MU-B cleavage was monitored with excitation and emission wavelengths of 335 and 440 nm, respectively, and a bandwidth of 10 nm (Safire^2, Tecan) at 37° C. for 5 min.
The IC50 values for the following compounds were determined using Microsoft Office Excel from a fit of the equation to the concentration-response plot of the fractional activity as a function of inhibitor concentration.

[2] = biological target: T2, purified wild type MGL (wt-MGLL 6H-11-313) (Homo sapiens, UniProt Q99685); experiment: MGL enzyme activity assay (4MU-B cleavage), wild type MGL; settings: wild type MGL 5 nM, 4MU-B 10 μM, 37° C.; read-out: MGL wild type inh IC50
T2 construct: purified wild type MGL (wt-MGLL 6H-11-313)
T2 sequence (Q99685 1-303): T1 sequence (Q99685 1-303 L169S/L176S) with S169L, S176L
How it was run: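 Enzyme in 20 mM PIPES pH 7.0, 150 mM NaCl, 0.001% Tween 20 with 4MU-B at 10 μM final and MGL at 5 nM final; compounds 17 to 0.0003 μM final, enzyme added last. Fluorescence (ex 335/em 440 nm) followed at 37° C for 5 min; IC50 from fit of fractional activity versus inhibitor concentration.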

[3] = system: MGL (rat brain homogenate); experiment: 2-AG accumulation assay in rat brain homogenate; settings: compound 1 μM, percent of vehicle 2-AG accumulation
How it was run: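 Rat brain homogenate was incubated with compound for 15 min at 37° C., after which CaCl2 was added to a final concentration of 10 mM and incubation continued for 15 min at 37° C. in 5 mL total. Reactions were stopped with 6 mL of 2:1 chloroform/methanol, and 2-AG accumulated in the organic phase was quantified by HPLC/MS.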

Structure (SMILES) | IC50 [1] | IC50 [2] | Rat Brain 2AG % VehCntrl (%) @1 μM [3]
O=C(c1ccc2c(-c3ccc(OC(F)(F)F)cc3)cccc2c1)N1CC(N[C@H]2CCN(C(=O)c3ccccc3)C2)C1 [Cpd 26, (3S)-1-(Phenylcarbonyl)-N-[1-({5-[4-(trifluoromethoxy)phenyl]naphthalen-2-yl}carbonyl)azetidin-3-yl]pyrrolidin-3-amine] | 125 nM | – | –
O=C(c1ccccc1)N1CC[C@H](NC2CN(C(=O)c3sc4ccccc4c3-c3ccccc3)C2)C1 [Cpd 65, (3S)-N-{1-[(3-Phenyl-1-benzothiophen-2-yl)carbonyl]azetidin-3-yl}-1-(phenylcarbonyl)pyrrolidin-3-amine] | 103 nM | – | –
O=C(c1ccccc1)N1CC[C@H](NC2CN(C(=O)c3cc4ccc(-c5ccc(C(F)(F)F)cc5)cc4s3)C2)C1 [Cpd 43, (3S)-1-(Phenylcarbonyl)-N-[1-({6-[4-(trifluoromethyl)phenyl]-1-benzothiophen-2-yl}carbonyl)azetidin-3-yl]pyrrolidin-3-amine] | 267 nM | – | –
O=C(c1ccc(-c2ccccc2)cc1)N1CC(N[C@H]2CCN(C(=O)c3ccc(F)cc3)C2)C1 [Cpd 45, (3S)-N-[1-(Biphenyl-4-ylcarbonyl)azetidin-3-yl]-1-[(4-fluorophenyl)carbonyl]pyrrolidin-3-amine] | 1630 nM | – | –
O=C(c1ccc(-c2ccccc2)cc1)N1CC(N[C@@H]2CN(C(=O)c3ccccc3)C[C@H]2O)C1 (relative stereo) [Cpd 78, trans-4-{[1-(Biphenyl-4-ylcarbonyl)azetidin-3-yl]amino}-1-(phenylcarbonyl)pyrrolidin-3-ol] | 13400 nM | – | –
O=C(c1ccccc1)N1CCC(NC2CN(C(=O)c3ccc(C(F)c4ccc(C(F)(F)F)cc4)cc3)C2)C1 (stereo not drawn) [Cpd 69, N-{1-[(4-{Fluoro[4-(trifluoromethyl)phenyl]methyl}phenyl)carbonyl]azetidin-3-yl}-1-(phenylcarbonyl)pyrrolidin-3-amine] | 198 nM | – | –
O=C(c1ccc(-c2ccccc2)cc1)N1CC(N[C@H]2CCN(C(=O)c3cc4ccccc4s3)C2)C1 [Cpd 48, (3S)-1-(1-Benzothiophen-2-ylcarbonyl)-N-[1-(biphenyl-4-ylcarbonyl)azetidin-3-yl]pyrrolidin-3-amine] | 8970 nM | – | –
O=C(c1ccc(-c2ccccc2)cc1)N1CC(N[C@@H]2CN(C(=O)c3ccccc3)CC2F)C1 (stereo partly drawn) [Cpd 60, (3R)-N-[1-(Biphenyl-4-ylcarbonyl)azetidin-3-yl]-4-fluoro-1-(phenylcarbonyl)pyrrolidin-3-amine] | > 16700 nM | – | –
O=C(c1ccc(-c2ccccc2)cc1)N1CC(N[C@H]2CCN(C(=O)c3cccc(F)c3)C2)C1 [Cpd 46, (3S)-N-[1-(Biphenyl-4-ylcarbonyl)azetidin-3-yl]-1-[(3-fluorophenyl)carbonyl]pyrrolidin-3-amine] | 336 nM | – | –
O=C(c1cscn1)N1CC[C@H](NC2CN(C(=O)c3sc4cc(C(F)(F)F)ccc4c3Cl)C2)C1 [Cpd 168, (3S)-N-(1-{[3-Chloro-6-(trifluoromethyl)-1-benzothiophen-2-yl]carbonyl}azetidin-3-yl)-1-(1,3-thiazol-4-ylcarbonyl)pyrrolidin-3-amine] | – | 32.2 nM | 611%
Cc1c(C(=O)N2CC(N[C@H]3CCN(C(=O)c4ccccc4)C3)C2)sc2cc(C(F)(F)F)ccc12 [Cpd 80, (3S)-N-(1-{[3-Methyl-6-(trifluoromethyl)-1-benzothiophen-2-yl]carbonyl}azetidin-3-yl)-1-(phenylcarbonyl)pyrrolidin-3-amine] | – | 22.6 nM | 174%
O=C(c1nccs1)N1CC[C@H](NC2CN(C(=O)c3ccc4c(ccn4-c4ccc(F)cc4)c3F)C2)C1 [Cpd 198, (3S)-N-(1-{[4-Fluoro-1-(4-fluorophenyl)-1H-indol-5-yl]carbonyl}azetidin-3-yl)-1-(1,3-thiazol-2-ylcarbonyl)pyrrolidin-3-amine] | – | < 5 nM | 937%
O=C(c1nccs1)N1CC[C@H](NC2CN(C(=O)c3sc4cc(-c5ccc(C(F)(F)F)cc5)ccc4c3F)C2)C1 [Cpd 177, (3S)-N-[1-({3-Fluoro-6-[4-(trifluoromethyl)phenyl]-1-benzothiophen-2-yl}carbonyl)azetidin-3-yl]-1-(1,3-thiazol-2-ylcarbonyl)pyrrolidin-3-amine] | – | 16 nM | 766%
O=C(c1nccs1)N1CC[C@H](NC2CN(C(=O)c3sc4ccc(-c5ccccc5)cc4c3F)C2)C1 [Cpd 171, (3S)-N-{1-[(3-Fluoro-5-phenyl-1-benzothiophen-2-yl)carbonyl]azetidin-3-yl}-1-(1,3-thiazol-2-ylcarbonyl)pyrrolidin-3-amine] | – | < 5 nM | 614%
O=C(c1nccs1)N1CC[C@H](NC2CN(C(=O)c3sc4cc(-c5ccc(C(F)(F)F)cc5)ccc4c3Cl)C2)C1 [Cpd 150, (3S)-N-[1-({3-Chloro-6-[4-(trifluoromethyl)phenyl]-1-benzothiophen-2-yl}carbonyl)azetidin-3-yl]-1-(1,3-thiazol-2-ylcarbonyl)pyrrolidin-3-amine] | – | < 5 nM | 759%

Further lines, with some results ahead:

IC50 [1] | IC50 [2] | Structure (SMILES) | Rat Brain 2AG % VehCntrl (%) @1 μM [3]
122 nM | – | O=C(c1ccc(-c2ccccc2)cc1)N1CC(N[C@H]2CCN(C(=O)c3ccccc3)C2)C1 [Cpd 2, (3S)-N-[1-(Biphenyl-4-ylcarbonyl)azetidin-3-yl]-1-(phenylcarbonyl)pyrrolidin-3-amine] | –
189 nM | – | O=C(c1ccc(-c2ccc(OC(F)(F)F)cc2)cc1)N1CC(N[C@H]2CCN(C(=O)c3ccccc3)C2)C1 [Cpd 36, (3S)-1-(Phenylcarbonyl)-N-(1-{[4′-(trifluoromethoxy)biphenyl-4-yl]carbonyl}azetidin-3-yl)pyrrolidin-3-amine] | –
– | 59.7 nM | O=C(c1ccccc1)N1CC[C@H](NC2CN(C(=O)c3cc4cc(-c5ccc(Cl)s5)ccc4o3)C2)C1 [Cpd 122, (3S)-N-(1-{[5-(5-Chlorothiophen-2-yl)-1-benzofuran-2-yl]carbonyl}azetidin-3-yl)-1-(phenylcarbonyl)pyrrolidin-3-amine] | 152%
– | 49.8 nM | Cn1cc(-c2cccc(C(F)(F)F)c2)c2ccc(C(=O)N3CC(N[C@H]4CCN(C(=O)c5ccccc5)C4)C3)cc21 [Cpd 166, (3S)-N-[1-({1-Methyl-3-[3-(trifluoromethyl)phenyl]-1H-indol-6-yl}carbonyl)azetidin-3-yl]-1-(phenylcarbonyl)pyrrolidin-3-amine] | 322%
– | 16 nM | O=C(c1cc2ccc(C(F)(F)F)cc2s1)N1CC(N[C@H]2CCN(C(=O)c3nccs3)C2)C1 [Cpd 138, (3S)-1-(1,3-Thiazol-2-ylcarbonyl)-N-(1-{[6-(trifluoromethyl)-1-benzothiophen-2-yl]carbonyl}azetidin-3-yl)pyrrolidin-3-amine] | 340%
– | < 5 nM | Cc1c(C(=O)N2CC(N[C@H]3CCN(C(=O)c4cscn4)C3)C2)sc2ccc(-c3ccccc3)cc12 [Cpd 123, (3S)-N-{1-[(3-Methyl-5-phenyl-1-benzothiophen-2-yl)carbonyl]azetidin-3-yl}-1-(1,3-thiazol-4-ylcarbonyl)pyrrolidin-3-amine] | 661%
– | < 5 nM | O=C(c1cscn1)N1CC[C@H](NC2CN(C(=O)c3cc4ccc(-c5cccc(C(F)(F)F)c5)cc4s3)C2)C1 [Cpd 100, (3S)-1-(1,3-Thiazol-4-ylcarbonyl)-N-[1-({6-[3-(trifluoromethyl)phenyl]-1-benzothiophen-2-yl}carbonyl)azetidin-3-yl]pyrrolidin-3-amine] | 546%
